Key:
Format in all cases: in vivo
[1] = test system: wheat; assay: Test Example 4: effect on crop by soil treatment (symbol e); conditions: application herbicide amount 320 g/ha
In short: (§1)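 Crop seeds, among them rice, wheat, beet and rapeseed, were sown in sterilized diluvial soil and covered with about 1.5 cm of soil. Boxes were kept in a greenhouse at 25° C. to 30° C. for plant growth.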

[2] = test system: soybean; assay: Test Example 5: effect on crop by foliage application, plastic box (symbol d); conditions: 320 g/ha, 3 weeks after application
In short: (§2)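 Foliage-application test plants come from spot sowing in sterilized diluvial soil under a soil layer of about 1.5 cm, grown at 25° C. to 30° C. in a greenhouse.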

[3] = test system: Amaranthus retroflexus; assay: Test Example 4: herbicidal effect by soil treatment (symbol N); conditions: application herbicide amount 320 g/ha
In short: (§3)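 Seeds were sown in sterilized diluvial soil, covered with about 1.5 cm of soil, and the soil surface was sprayed with a water-diluted emulsion of the compound at a predetermined rate. Plants grew in a greenhouse at 25° C. to 30° C.; effects were scored visually 3 weeks after application.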

[4] = test system: Chenopodium album; assay: Test Example 5: herbicidal effect by foliage application, plastic box (symbol O); conditions: 320 g/ha, 3 weeks after application
In short: (§4)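 Seeds were sown in sterilized diluvial soil, covered with about 1.5 cm of soil and grown 14 days in a greenhouse at 25° C. to 30° C. An emulsifiable formulation diluted in water to a set rate was sprayed over foliage, and injury was scored 3 weeks later.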

[5] = test system: beet; assay: Test Example 4: effect on crop by soil treatment (symbol f); conditions: application herbicide amount 320 g/ha
In short: as §1

[6] = test system: Avena fatua; assay: Test Example 4: herbicidal effect by soil treatment (symbol I); conditions: application herbicide amount 320 g/ha
In short: as §3

[7] = test system: Apera spica-venti; assay: Test Example 4: herbicidal effect by soil treatment (symbol L); conditions: application herbicide amount 320 g/ha
In short: as §3

[8] = test system: Setaria viridis; assay: Test Example 5: herbicidal effect by foliage application, plastic box (symbol G); conditions: 320 g/ha, 3 weeks after application
In short: as §4

[9] = test system: rapeseed; assay: Test Example 4: effect on crop by soil treatment (symbol g); conditions: application herbicide amount 320 g/ha
In short: as §1

[10] = test system: beet; assay: Test Example 5: effect on crop by foliage application, plastic box (symbol f); conditions: 320 g/ha, 3 weeks after application
In short: as §2

[11] = test system: Avena fatua; assay: Test Example 5: herbicidal effect by foliage application, plastic box (symbol I); conditions: 320 g/ha, 3 weeks after application
In short: as §4

[12] = test system: Echinochloa crus-galli var. crus-galli; assay: Test Example 4: herbicidal effect by soil treatment (symbol H); conditions: application herbicide amount 320 g/ha
In short: as §3

[13] = test system: Scirpus juncoides; assay: Test Example 1: herbicidal activity, application before weed generation in submerged conditions (symbol B); conditions: application herbicide amount 320 g/ha
In short: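 0–5 visual score, 3 wk post-application. Submerged pots, alluvial soil, water 4 cm; seeds sown mixed, rice at 2.5 leaves transplanted. Emulsion diluted to predetermined dose, applied to water surface at sowing. 25–30 °C greenhouse.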

[14] = test system: Apera spica-venti; assay: Test Example 5: herbicidal effect by foliage application, plastic box (symbol L); conditions: 320 g/ha, 3 weeks after application
In short: as §4

[15] = test system: Galium spurium; assay: Test Example 4: herbicidal effect by soil treatment (symbol Q); conditions: application herbicide amount 320 g/ha
In short: as §3

[16] = test system: Scirpus juncoides; assay: Test Example 2: herbicidal activity, application during weed generation in submerged conditions (symbol B); conditions: Table 23; application herbicide amount 320 g/ha; grade 0-5 by criteria of Test Example 1
In short: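 Compound was applied as a water-diluted emulsion into the standing water of flooded pots (4 cm) once co-sown weeds reached one to two leaves. Greenhouse temperature was 25° C. to 30° C., soil was alluvial, and each species was rated visually after 3 weeks.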

[17] = test system: Veronica persica; assay: Test Example 5: herbicidal effect by foliage application, plastic box (symbol R); conditions: 320 g/ha, 3 weeks after application
In short: as §4

CCc1cc(-c2ccc(Cl)cc2)cc(C)c1C1=C(O)CC(CC(C)=NOC)C1=O (centres unmarked) [6-066]
e: wheat, effect on crop grade [1]: 4 (Herbicidal ratio of 70% or higher and lower than 90%) | d: soybean, effect on crop (criteria of Test Example 1) [2]: 3 (Herbicidal ratio of 40% or higher and lower than 70%) | N: Amaranthus retroflexus, herbicidal effect grade [3]: 2 (Herbicidal ratio of 20% or higher and lower than 40%) | O: Chenopodium album, herbicidal effect (criteria of Test Example 1) [4]: 1 (Herbicidal ratio of 5% or higher and lower than 20%) | f: beet, effect on crop grade [5]: 0 (Herbicidal ratio of 5% or lower (almost no effect)) | I: Avena fatua, herbicidal effect grade [6]: 5 (Herbicidal ratio of 90% or more (almost completely withered)) | L: Apera spica-venti, herbicidal effect grade [7]: 5 (Herbicidal ratio of 90% or more (almost completely withered)) | G: Setaria viridis, herbicidal effect (criteria of Test Example 1) [8]: 5 (Herbicidal ratio of 90% or more (almost completely withered)) | g: rapeseed, effect on crop grade [9]: 2 (Herbicidal ratio of 20% or higher and lower than 40%) | f: beet, effect on crop (criteria of Test Example 1) [10]: 0 (Herbicidal ratio of 5% or lower (almost no effect)) | I: Avena fatua, herbicidal effect (criteria of Test Example 1) [11]: 5 (Herbicidal ratio of 90% or more (almost completely withered)) | H: Echinochloa crus-galli var. crus-galli, herbicidal effect grade [12]: 5 (Herbicidal ratio of 90% or more (almost completely withered)) | Herbicidal effect grade, B: Scirpus juncoides [13]: 3 (Herbicidal ratio of 40% or higher and lower than 70%) | L: Apera spica-venti, herbicidal effect (criteria of Test Example 1) [14]: 5 (Herbicidal ratio of 90% or more (almost completely withered)) | Q: Galium spurium, herbicidal effect grade [15]: 0 (Herbicidal ratio of 5% or lower (almost no effect)) | Herbicidal effect grade, B: Scirpus juncoides [16]: 0 (Herbicidal ratio of 5% or lower (almost no effect))

CC(=O)CC1CC(O)=C(c2c(C)cc(Oc3ccc(C(F)(F)F)cn3)cc2C)C1=O (centres unmarked) [7-019]
Effect on crop grade, e: wheat [1]: 0 (Herbicidal ratio of 5% or lower (almost no effect)) | d: soybean, effect on crop (criteria of Test Example 1) [2]: 0 (Herbicidal ratio of 5% or lower (almost no effect)) | Herbicidal effect grade, N: Amaranthus retroflexus [3]: 0 (Herbicidal ratio of 5% or lower (almost no effect)) | O: Chenopodium album, herbicidal effect (criteria of Test Example 1) [4]: 0 (Herbicidal ratio of 5% or lower (almost no effect)) | Effect on crop grade, f: beet [5]: 0 (Herbicidal ratio of 5% or lower (almost no effect)) | Herbicidal effect grade, I: Avena fatua [6]: 0 (Herbicidal ratio of 5% or lower (almost no effect)) | Herbicidal effect grade, L: Apera spica-venti [7]: 0 (Herbicidal ratio of 5% or lower (almost no effect)) | G: Setaria viridis, herbicidal effect (criteria of Test Example 1) [8]: 3 (Herbicidal ratio of 40% or higher and lower than 70%) | Effect on crop grade, g: rapeseed [9]: 0 (Herbicidal ratio of 5% or lower (almost no effect)) | f: beet, effect on crop (criteria of Test Example 1) [10]: 0 (Herbicidal ratio of 5% or lower (almost no effect)) | I: Avena fatua, herbicidal effect (criteria of Test Example 1) [11]: 0 (Herbicidal ratio of 5% or lower (almost no effect)) | Herbicidal effect grade, H: Echinochloa crus-galli var. crus-galli [12]: 0 (Herbicidal ratio of 5% or lower (almost no effect)) | R: Veronica persica, herbicidal effect (criteria of Test Example 1) [17]: 0 (Herbicidal ratio of 5% or lower (almost no effect)) | Herbicidal effect grade, B: Scirpus juncoides [13]: 0 (Herbicidal ratio of 5% or lower (almost no effect)) | L: Apera spica-venti, herbicidal effect (criteria of Test Example 1) [14]: 3 (Herbicidal ratio of 40% or higher and lower than 70%) | Herbicidal effect grade, Q: Galium spurium [15]: 0 (Herbicidal ratio of 5% or lower (almost no effect))

Reference: patent US11000033B2, “Ketone or oxime compound, and herbicide” (NISSAN CHEMICAL CORPORATION, priority 2014, dated 2021)
